The source of these data is patent US9517227B2, “Dihydropyrazoles” (Merck Patent GmbH, priority 2011, dated 2016).

Assay [1] concerns the target T1, follicle-stimulating hormone (FSH) receptor (Rattus norvegicus, UniProt P20395).
T1 construct: endogenous in cells; host or cells: rat granulosa cells
T1 sequence (P20395 18-692): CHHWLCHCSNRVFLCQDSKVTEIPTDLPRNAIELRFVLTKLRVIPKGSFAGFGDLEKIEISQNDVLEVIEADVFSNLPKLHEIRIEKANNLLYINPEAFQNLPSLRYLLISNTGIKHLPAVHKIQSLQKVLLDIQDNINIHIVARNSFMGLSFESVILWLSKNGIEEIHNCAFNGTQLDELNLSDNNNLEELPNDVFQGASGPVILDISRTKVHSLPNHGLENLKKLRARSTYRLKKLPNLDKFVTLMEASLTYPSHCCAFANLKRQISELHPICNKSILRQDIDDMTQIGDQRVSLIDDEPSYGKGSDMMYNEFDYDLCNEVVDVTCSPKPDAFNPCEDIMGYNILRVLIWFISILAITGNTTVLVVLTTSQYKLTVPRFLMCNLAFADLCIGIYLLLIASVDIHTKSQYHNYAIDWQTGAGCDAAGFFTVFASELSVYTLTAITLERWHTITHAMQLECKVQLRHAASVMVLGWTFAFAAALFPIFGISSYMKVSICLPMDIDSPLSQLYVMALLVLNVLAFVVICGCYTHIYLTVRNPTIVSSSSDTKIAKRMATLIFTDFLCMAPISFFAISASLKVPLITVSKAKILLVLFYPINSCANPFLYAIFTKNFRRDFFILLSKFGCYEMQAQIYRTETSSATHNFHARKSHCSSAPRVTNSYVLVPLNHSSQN
In words: Rat granulosa EC50 FSH (Assay B). Conditions: rat granulosa cells; for pEC50: per Yanofsky et al. 2006. Type of assay: cell-based. As to the method: Rat Granulosa EC50 FSH (Assay B)
The assay was performed pursuant to the teaching of Yanofsky et al. (2006) Allosteric activation of the follicle-stimulating hormone (FSH) receptor by selective, nonpeptide agonists. JBC 281(19): 13226-13233, which is incorporated by reference in the disclosure of the invention.

A further assay has as its target T2, FSHR (Homo sapiens, UniProt P23945).
T2 construct: expressed in transfected cells; host or cells: CHO (Cho-FSHR-LUC-1-1-43)
T2 sequence (P23945 18-695): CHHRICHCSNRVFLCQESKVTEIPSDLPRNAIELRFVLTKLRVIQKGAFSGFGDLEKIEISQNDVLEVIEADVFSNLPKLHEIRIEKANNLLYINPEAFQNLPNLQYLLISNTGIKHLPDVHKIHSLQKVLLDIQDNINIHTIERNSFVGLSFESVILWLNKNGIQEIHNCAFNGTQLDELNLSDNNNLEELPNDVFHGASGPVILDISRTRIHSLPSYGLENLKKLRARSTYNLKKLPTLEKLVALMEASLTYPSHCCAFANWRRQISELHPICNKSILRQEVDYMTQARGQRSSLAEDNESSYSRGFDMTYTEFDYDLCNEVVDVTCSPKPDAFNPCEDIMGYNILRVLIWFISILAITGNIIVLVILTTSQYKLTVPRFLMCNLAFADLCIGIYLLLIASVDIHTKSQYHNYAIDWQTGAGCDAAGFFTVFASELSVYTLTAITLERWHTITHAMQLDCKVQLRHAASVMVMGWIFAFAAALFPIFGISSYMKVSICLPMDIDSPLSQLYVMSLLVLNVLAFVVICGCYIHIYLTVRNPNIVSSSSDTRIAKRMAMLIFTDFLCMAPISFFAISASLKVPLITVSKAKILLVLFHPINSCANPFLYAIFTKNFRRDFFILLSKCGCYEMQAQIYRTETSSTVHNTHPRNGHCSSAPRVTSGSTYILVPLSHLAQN
The assay is described as follows: EC50 of cyclic AMP production in CHO FSHR cells + EC20 FSH (Assay A). The class given is cell-based. As to conditions: CHO-FSHR-LUC cells, 0.265 pM FSH (EC20), cAMP HTRF, 1 h. As to the method:
EC50 of Cyclic AMP Production in CHO FSHR Cells+EC20 FSH (Assay A)
2500 Cho-FSHR-LUC-1-1-43 cells were plated per well in 5 μl of phenol red free DMEM/F12+1% FBS. Cells were plated in 384 well, solid white low volume plates (Greiner 784075) by Multidrop. Cells were assayed by adding 100 μl of 2×EC20 FSH/IBMX in DMEM/F12+0.1% BSA) by Multidrop to 2 μl of test compound stamped in 384 well plates (compounds are diluted 1:50). The final FSH concentration was 0.265 pM, and the final IBMX concentration was 200 μM. The compound plate map was as follows: Column 1: 2 μl of DMSO; Column 2: 2 μl of DMSO; Columns 3-12 and 13-24: 2 μl of test compound, diluted 1:4 in 100% DMSO, or 2 μl of FSH, diluted 1:4 in DMEM/F12+0.1% BSA. The starting concentration for FSH was 50 nM (final concentration was 0.5 nM). Furthermore, Column 23 contained 2 μl of EC100 FSH reference (100×) (diluted in DMEM/F12+0.1% BSA) at a final concentration of 0.5 nM, and Column 24 contained 2 μl of 1 mM AS707664/2 reference compound 2. 5 μl of compound+EC20 FSH mixture were transferred to cell plates (1:2 dilution into 5 μl of cell media). The plates were incubated at 37° C. for 1 h. 10 μl of mixed HTRF (CisBio #62AM4PEC) reagents were added per well and incubated at room temperature for 1 h. The plates were read on Envision using the cAMP HTRF—low volume 384 well protocol. The readout was the calculated fluorescence ratio (665 nm/620 nm).
A general note: In TR-FRET formats the signal depends on donor and acceptor labels being close together.

Each structure is given as a SMILES string. pEC50: −log10 of the molar value.

Broadly, the pEC50 is the EC50 on a negative log10 scale, so that one unit is a factor of ten. With `CCc1cccc(C(=O)N2CCC(c3ccc(OC)c(OC)c3)=N2)c1` [Compound 93], the pEC50 in assay [1] was 6.14; at FSHR, 4.57.

Take `COc1ccc(C2=NN(C(=O)c3cccc(F)c3)C(C)(C)C2)cc1OC` [Compound 129, [3-(3,4-Dimethoxy-phenyl)-5,5-dimethyl-4,5-dihydro-pyrazol-1-yl]-(3-fluoro-phenyl)-methanone]: the pEC50 was 6.44 in assay [1] and 4.46 at FSHR.

For the molecule `COc1ccc(C2=NN(C(=O)c3ccc4c(c3)OCO4)C(C)(C)C2)cc1OC` [Compound 131, [1,3]Dioxol-5-yl-[3-(3,4-dimethoxy-phenyl)-5,5-dimethyl-4,5-dihydro-pyrazol-1-yl]-methanone], the pEC50 is 6.38 in assay [1] and 4.64 on FSHR.

On to `COc1ccc(C2=NN(C(=O)c3cccc(C#N)c3)C(C)(C)C2)cc1OC` [Compound 132, 3-[3-(3,4-Dimethoxy-phenyl)-5,5-dimethyl-4,5-dihydro-pyrazole-1-carbonyl]-benzonitrile], for which the pEC50 is 7.60 in assay [1] and 4.38 on FSHR.

Consider `COc1ccc(C2=NN(C(=O)c3ccc(C)c(F)c3)CC2)cc1OC` [Compound 136], for which the pEC50 in assay [1] is 6.97; at FSHR, 4.52.

Take `COc1ccc(-c2ccn(C(=O)c3ccc4c(c3)OCO4)n2)cc1OC` [Compound 148]: the pEC50 in assay [1] is 5.47; at FSHR, 5.54.

With `COc1ccc(C2=NN(C(=O)c3ccc(Oc4ccccc4)cc3)C(C)(C)C2)cc1OC` [Compound 230, [3-(3,4-Dimethoxy-phenyl)-5,5-dimethyl-4,5-dihydro-pyrazol-1-yl]-(4-phenoxy-phenyl)-methanone], the pEC50 was 6.89 in assay [1] and 5.66 at FSHR.

Consider `COc1ccc(C2=NN(C(=O)c3cccc(OC(F)(F)F)c3)C(C)(C)C2)cc1OC` [Compound 231, [3-(3,4-Dimethoxy-phenyl)-5,5-dimethyl-4,5-dihydro-pyrazol-1-yl]-(3-trifluoromethoxy-phenyl)-methanone], for which the pEC50 was 5.94 in assay [1] and 4.62 at FSHR.

For `COc1ccc(C2=NN(C(=O)c3cccc(C)c3)C(C)(C)C2)cc1OC` [Compound 232, [3-(3,4-Dimethoxy-phenyl)-5,5-dimethyl-4,5-dihydro-pyrazol-1-yl]-m-tolyl-methanone], the pEC50 was 6.24 in assay [1] and 4.41 at FSHR.

Turning to `COc1ccc(C2=NN(C(=O)c3cccc(Br)c3)C(C)(C)C2)cc1OC` [Compound 233, (3-Bromo-phenyl)-[3-(3,4-dimethoxy-phenyl)-5,5-dimethyl-4,5-dihydro-pyrazol-1-yl]-methanone], the pEC50 was 6.67 in assay [1] and 4.56 on FSHR.

With `COc1ccc(C2=NN(C(=O)c3cccc(C(F)(F)F)c3)C(C)(C)C2)cc1OC` [Compound 234, [3-(3,4-Dimethoxy-phenyl)-5,5-dimethyl-4,5-dihydro-pyrazol-1-yl]-(3-trifluoromethyl-phenyl)-methanone], the pEC50 was 6.16 in assay [1] and 4.65 at FSHR.

In the case of `COc1ccc(C2=NN(C(=O)c3ccc(C)cc3)C(C)(C)C2)cc1OC` [Compound 235, [3-(3,4-Dimethoxy-phenyl)-5,5-dimethyl-4,5-dihydro-pyrazol-1-yl]-p-tolyl-methanone], the pEC50 in assay [1] is 6.27; on FSHR, 4.45.

Regarding `COc1ccc(C2=NN(C(=O)c3ccc(F)c(C(F)(F)F)c3)C(C)(C)C2)cc1OC` [Compound 236, [3-(3,4-Dimethoxy-phenyl)-5,5-dimethyl-4,5-dihydro-pyrazol-1-yl]-(4-fluoro-3-trifluoromethyl-phenyl)-methanone], the values for the pEC50 (in assay [1]; at FSHR) were 5.76 and 4.60, respectively.

Regarding `COc1ccc(C2=NN(C(=O)c3ccc(F)c(Cl)c3)C(C)(C)C2)cc1OC` [Compound 237, (3-Chloro-4-fluoro-phenyl)-[3-(3,4-dimethoxy-phenyl)-5,5-dimethyl-4,5-dihydro-pyrazol-1-yl]-methanone], the pEC50 was 6.22 in assay [1] and 4.46 on FSHR.

As to `COc1ccc(C2=NN(C(=O)Cc3cccc(F)c3)CC2)cc1OC` [Compound 241, 1-[3-(3,4-Dimethoxy-phenyl)-4,5-dihydro-pyrazol-1-yl]-2-(3-fluoro-phenyl)-ethanone], the results for the pEC50 (in assay [1]; on FSHR) were 6.47 and 4.51, respectively.

Turning to `COc1ccc(C2=NN(C(=O)[C@@H](OC)c3ccccc3)CC2)cc1OC` [Compound 292], the “Assay B: value given in % (rat granulosa)” value in assay [1] (meaning of % not stated) was found to be 186.00%. The pEC50 at FSHR is 4.54.
